Results published in EP0035856A2, “Pharmaceutical and dietary compositions” (EFAMOL LIMITED, priority 1980, dated 1981).
Where two headings read alike, the source gives them in different places.

Key:
[1] = test system: rat mesenteric vascular bed; conditions: cited from earlier work; for inhibitory action on noradrenaline responses with intact PG synthesis versus PG synthesis blocked: PG synthesis blocked by indomethacin or by aspirin
Platelets (human) = assay: Conversion of 14C-labelled DGLA and AA to PGEs and TXBs in human platelets; type: cell-based; conditions: Platelet, 5 μg/ml drug, percentage of control incubation with drug vehicle alone
Experimental: The method is given in detail later herein but briefly human platelets are incubated with radioactive DGLA or arachidonic acid. The PGs produced during incubation are extracted by conventional means and separated by thin layer chromatography, and the amount of radioactivity appearing in each PG or related substance is counted. PGE 1, PGF la and thromboxane Bl from DGLA, and PGE 2, PFG 2a and thromboxane B2 from AA are estimated.
The conversions of the precursors to the respective PGEs and TXBs in platelets and to the PGEs in kidney slices were investigated. […] A 10% variation is a reliable indication of real change.
The chloroform/methanol extract was then reduced in volume to 1 ml under dry prepurified nitrogen. Thin layer chromatography was carried out on 500 µg precoated, prescored silica gel G Uniplates (Analtech). Plates were activated by heating to 100°C for 1 hour immediately prior to use. The solvent system was chloroform:methanol: acetic acid:water (90:8:1:0.8). Reference compounds (PG's El and Fla, and thromboxane Bl) were run at the same time and visualized by phosphomolybdic acid spray followed by brief heating. […] Each elution was then evaporated to dryness and counted by liquid scintillation (Beckman 100 LS counter). […]

Kidney slices (rat) = assay: Conversion of 14C-labelled DGLA and AA to PGEs in rat kidney slices; type: cell-based; conditions: 5 μg/ml drug, percentage of control incubation with drug vehicle alone, 10% variation is a real change
Experimental: The conversions of the precursors to the respective PGEs and TXBs in platelets and to the PGEs in kidney slices were investigated. The results are shown in the following tables and are expressed as percentages of the results obtained during control incubations when drug vehicle alone was added. A 10% variation is a reliable indication of real change.
The detailed technique with platelets is given below by way of example. That with kidney slices was essentially similar.
(1-^14C) arachidonic acid and (1-^14C) dihomo-y-linolenic acid was used, diluted with hexane to specific activities of about 2 or 5 µCi/µmol. One day expired (2 days old) human platelets were obtained and used within 48 hours of expiration. One unit was centrifuged at lOOOg for 15 minutes and the supernatant drawn off. The platelet pellet was resuspended in Tris-NaCl-EDTA buffer, made up of 0.15 M NaCl, 0.15 M Tris HC1 at pH 7.4 and 0.077 M NaEDTA (90:8:2 v/v/v). The platelets were recentrifuged, the supernatant removed and the pellet resuspended in Krebs-Henseleit buffer (without calcium) at oH 7.4. The washed platelet suspension contained about 1-2% red blood cells. All glassware used in the preparation of the platelets was siliconized.
Four equal sized 1 ml aliquots of the platelet suspension, containing 10^9 platelets/ml were incubated with e.g. 0.5 µCi 14 C-DGLA for five minutes. At the beginning of the incubation the drug under test was added to the suspensions. The reaction was stopped after five minutes by addition of 1/10 volume of 10% formic acid. The suspension was then extracted three times with ethyl acetate and the fractions pooled and dried under vacuum. The extract was then taken up with 5 ml chloroform/methanol (2/1, v/v). Recovery of radioactive material in the extract was checked by taking 50pl of the chloroform/methanol and counting by liquid scintillation. Recovery was in the range 80-95% in most experiments.
The chloroform/methanol extract was then reduced in volume to 1 ml under dry prepurified nitrogen. Thin layer chromatography was carried out on […] precoated, prescored silica gel G Uniplates (Analtech). Plates were activated by heating to 100°C for 1 hour immediately prior to use. The solvent system was chloroform:methanol: acetic acid:water (90:8:1:0.8). Reference compounds (PG's El and Fla, and thromboxane Bl) were run at the same time and visualized by phosphomolybdic acid spray followed by brief heating. The bands on the plates corresponding to the reference PGE 1,PFG la and TXB 1 were scraped off and eluted with 20 ml acetone. Each elution was then evaporated to dryness and counted by liquid scintillation (Beckman 100 LS counter). […]

[2] = read-out: PGE 1 formed from precursor acid DGLA
[3] = read-out: PGE 2 formed from precursor acid AA

SMILES | inhibitory action on noradrenaline responses with intact PG synthesis versus PG synthesis blocked [1] | effect on responses to noradrenaline [1] | also measured
CCN(CC)CCOC(=O)c1ccc(N)cc1 [procaine] | share this effect of chloroquine |  | 
CCN(CC)CCCC(C)Nc1ccnc2cc(Cl)ccc12 (centres unmarked) [chloroquine] | more potent when endogenous prostaglandin synthesis is intact | inhibits responses to noradrenaline | activity at 5 µg/mL (Platelets (human); [2]): 132%; activity at 5 µg/mL (Platelets (human); [3]): 98%; activity at 5 µg/mL (Platelets (human); read-out: TXB 1 formed from precursor acid DGLA): 128%; activity at 5 µg/mL (Platelets (human); read-out: TXB 2 formed from precursor acid AA): 97%; activity at 5 µg/mL (Kidney slices (rat); [2]): 129%; activity at 5 µg/mL (Kidney slices (rat); [3]): 101%
CCCCC/C=C\C/C=C\C/C=C\CCCCCCC(=O)O [DGLA, dihomo-y-linolenic acid] |  | inhibit responses to noradrenaline | 
C=C[C@H]1C[N@@]2CC[C@H]1C[C@H]2[C@H](O)c1ccnc2ccc(OC)cc12 [quinine] | share this effect of chloroquine |  | 
CC(=O)S[C@@H]1CC2=CC(=O)CC[C@]2(C)[C@H]2CC[C@@]3(C)[C@@H](CC[C@@]34CCC(=O)O4)[C@H]12 [spironolactone] |  |  | activity at 5 µg/mL (Kidney slices (rat); [2]): 143%; activity at 5 µg/mL (Kidney slices (rat); [3]): 67%
CCN(CC)CCCC(C)Nc1c2ccc(Cl)cc2nc2ccc(OC)cc12 (centres unmarked) [quinacrine] | share this effect of chloroquine |  | 
CCCCC[C@H](O)/C=C/[C@H]1[C@H](O)CC(=O)[C@@H]1CCCCCCC(=O)O [PGE 1] |  | inhibit responses to noradrenaline | 
C=C[C@H]1C[N@@]2CC[C@H]1C[C@@H]2[C@@H](O)c1ccnc2ccc(OC)cc12 [quinidine] | share this effect of chloroquine |  | 
CCCCC/C=C\C/C=C\C/C=C\C/C=C\CCCC(=O)O [AA, arachidonic acid] |  | increase noradrenaline responses | 
